Data taken from publication PMC10530293, “Supramolecular multivalency effects enhance imine formation in aqueous medium allowing for dynamic modification of enzymatic activity” (Chemical Science, 2023).

Target: T1, carbonic anhydrase (CA) from bovine erythrocytes (Bos taurus, UniProt P00921)
T1 construct: gene CA2; native full-length enzyme from bovine erythrocytes, N-terminal Ser1, 18 Lys
Test: UV monitoring of 4-nitrophenyl acetate hydrolysis (esterase activity)
Assay type: biochemical
Settings: read-out: apparent IC50

T1 sequence (P00921 2-260): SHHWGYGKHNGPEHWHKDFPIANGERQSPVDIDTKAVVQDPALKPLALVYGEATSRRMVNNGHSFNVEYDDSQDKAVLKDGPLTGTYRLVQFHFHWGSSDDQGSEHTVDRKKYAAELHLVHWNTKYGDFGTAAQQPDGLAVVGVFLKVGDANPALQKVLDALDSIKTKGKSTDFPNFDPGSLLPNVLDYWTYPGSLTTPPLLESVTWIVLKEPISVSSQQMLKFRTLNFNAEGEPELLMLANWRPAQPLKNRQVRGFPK

IC50: ~1000 nM
Structure (SMILES): O=Cc1c(F)c(F)c(SC[C@H](NC(=O)OCc2ccccc2)C(=O)O)c(F)c1F [A8]
